# Experimental data as given in PubChem BioAssay AID1645866 (Buhrlage Lab, Dana-Farber Cancer Institute and Novartis …, 2021).
# Activity calls are given as the source filed them.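 The calls were made as follows: active = in confirmatory dose-response testing, peak deubiquitinase inhibition of 30% or more; inactive = the rest.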
# Target: Ubiquitin carboxyl-terminal hydrolase 28 (Homo sapiens) (UniProt Q96RU2)
# Experiment: Concentration-response biochemical assay confirming initial hits as inhibitors of ubiquitin-specific protease 28 (AID 1645866)
# Details: purified USP28, ubiquitin-rhodamine fluorescence, 30 min
# Ubiquitin carboxyl-terminal hydrolase 28 (Homo sapiens), sequence (Q96RU2 whole entry, looked up): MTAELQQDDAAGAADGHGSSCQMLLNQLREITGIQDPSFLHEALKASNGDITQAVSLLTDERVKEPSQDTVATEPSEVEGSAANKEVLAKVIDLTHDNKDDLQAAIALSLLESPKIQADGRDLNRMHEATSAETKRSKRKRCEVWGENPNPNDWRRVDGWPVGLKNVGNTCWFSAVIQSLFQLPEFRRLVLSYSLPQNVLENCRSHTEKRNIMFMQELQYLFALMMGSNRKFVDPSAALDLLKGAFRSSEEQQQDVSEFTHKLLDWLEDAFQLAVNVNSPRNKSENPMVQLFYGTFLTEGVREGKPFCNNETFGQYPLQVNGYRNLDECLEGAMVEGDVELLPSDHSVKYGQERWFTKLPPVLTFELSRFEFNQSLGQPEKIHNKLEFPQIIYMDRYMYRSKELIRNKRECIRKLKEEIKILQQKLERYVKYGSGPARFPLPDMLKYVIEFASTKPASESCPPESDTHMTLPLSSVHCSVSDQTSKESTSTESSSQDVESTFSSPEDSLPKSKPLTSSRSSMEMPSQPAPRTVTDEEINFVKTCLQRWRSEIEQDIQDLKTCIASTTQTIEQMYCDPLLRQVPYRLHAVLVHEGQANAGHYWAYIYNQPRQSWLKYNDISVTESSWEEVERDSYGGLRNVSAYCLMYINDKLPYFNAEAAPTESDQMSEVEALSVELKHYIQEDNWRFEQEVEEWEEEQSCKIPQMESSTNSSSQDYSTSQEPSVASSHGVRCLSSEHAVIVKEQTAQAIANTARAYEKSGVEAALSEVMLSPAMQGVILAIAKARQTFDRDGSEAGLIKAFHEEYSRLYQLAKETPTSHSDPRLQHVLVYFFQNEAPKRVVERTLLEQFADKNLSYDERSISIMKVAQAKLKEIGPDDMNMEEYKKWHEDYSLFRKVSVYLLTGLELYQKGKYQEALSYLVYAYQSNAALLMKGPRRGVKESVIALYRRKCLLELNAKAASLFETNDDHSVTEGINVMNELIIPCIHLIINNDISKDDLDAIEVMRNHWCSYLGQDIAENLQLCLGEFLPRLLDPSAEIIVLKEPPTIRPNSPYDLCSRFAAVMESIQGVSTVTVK
row,IC50,Structure (SMILES)
1,16.5 µM,Cc1ccc(-c2cn(CC(=O)N3CCN(c4ccccn4)CC3)c(=O)o2)cc1
2,19.8 µM,CN=C(N)NCCC/C=C/CCCC(C)CC(C)C1OC(=O)/C=C/C(C)C(O)CC(O)C(C)C(O)CCC(C)C(O)CC2(O)OC(CC(OC(=O)CC(=O)O)CC(O)CC(O)C(C)C(O)/C=C/C1C)CC(O)C2O (stereo not given)
3,10.9 µM,COc1cnc(-c2ccccn2)nc1Sc1ccccc1Cl
4,> 50 µM (inactive),COc1ccc(-n2nnc3c(SCC(=O)Nc4cc(C)on4)ncnc32)cc1
5,21.4 µM,Cc1cc(C#N)c2c(C)ccc(C(C)C)cc1-2
6,> 50 µM (inactive),Cc1ccc(C2c3cccn3CCN2C(=O)Nc2ccccc2)cc1 (stereo not given)
7,0.0687 µM,O=C(NCc1cccnc1)C1CCN(c2cnc(N3CCCCCC3)nc2)CC1
8,25.9 µM,O=C(Cn1c(=O)n(Cc2ccccc2)c(=O)c2ncccc21)NCc1ccccc1Cl
9,> 50 µM (inactive),Cc1cc(Cl)ccc1Nc1nc(Nc2cccc(F)c2)nc2nccnc12
10,> 50 µM (inactive),O=C(c1ccco1)N1CCCC2(C1)Nc1cccnc1NC2=NC1CCCC1 (stereo not given)
11,27.4 µM,COc1ccccc1NC(=O)c1cc(-c2ccccn2)nc2ccccc12
12,24 µM,CCOc1ccc2c(c1)c(=O)c(C(=O)c1ccccc1)cn2CC(=O)Nc1ccc2c(c1)OCCO2
13,13.8 µM,O=C(NCCc1ccccn1)c1cc(-c2ccc(Br)cc2)n[nH]1
14,5.44 µM,O=C(COc1ccc(Cl)cc1Cl)Nc1ccc2[nH]c(=O)[nH]c2c1
15,21.2 µM,Cc1ccc(NC(=O)CNC(=O)c2cc3ccccc3o2)cc1
16,18.8 µM,CC(=O)c1sc(NC(=O)c2ccccc2-c2ccc(C(F)(F)F)cc2)nc1C
17,4.54 µM,CS(=O)(=O)N1CCCc2cc(C(=O)Nc3ccc4c(c3)OCO4)ccc21
18,2.43 µM,COc1cccc(NC(=O)c2cnc3c(c2)c(=O)n(C)c(=O)n3C)c1
19,> 50 µM (inactive),COc1cccc(N2CCN(C(=O)C3CCN(c4nc(NC(C)=O)ns4)CC3)CC2)c1
20,21.8 µM,COc1ccccc1NC(=O)Cn1cc(C(=O)c2ccc(C)cc2)c(=O)c2ccccc21
21,4.17 µM,Cc1ccc2nc(NC(=O)CSc3nnc(-c4ccncc4)n3C3CC3)sc2c1
22,5.37 µM,Nc1c(C(=O)NCc2ccc3c(c2)OCO3)nnn1Cc1ccc(Br)cc1F
23,9.31 µM,O=C(CSc1ccc2nnc(-c3ccccc3)n2n1)N1CCCc2ccccc21
24,6.78 µM,O=C(Nc1cccc(C(F)(F)F)c1)c1cc2c(s1)-c1ccccc1OC2
25,2.27 µM,COc1ccc(COc2ccc3c(C)c(CC(=O)N4CC[C@@]5(O)CCCC[C@H]5C4)c(=O)oc3c2)cc1

row,IC50,Structure (SMILES)
1,34.2 µM,CCCCN1CC(C(=O)Nc2ccc(C(=O)Nc3ccc(F)c(Cl)c3)cc2)CC1=O (stereo not given)
2,14.3 µM,Cc1cc(=O)n(CC(=O)Nc2ccccc2F)c(Nc2ccc(F)cc2)n1
3,2.13 µM,O=C(NCc1ccccc1Cl)c1ccc(-c2nnc(-c3ccccc3)o2)cc1
4,> 50 µM (inactive),O=C(Cc1ccccc1F)Nc1nc(-c2ccco2)c(-c2ccco2)s1
5,2.03 µM,COc1ccccc1-c1ccc(SCC(=O)Nc2ccc3c(c2)OCCO3)nn1
6,8.44 µM,COc1ccc(OC)c(-n2c(SCC(=O)N3CCc4ccccc43)nnc2-c2cccc(S(=O)(=O)N(C)C)c2)c1
7,6.9 µM,Cc1ccccc1Cn1ccc(NC(=O)c2noc(C)c2[N+](=O)[O-])n1
8,1.34 µM,O=C(COc1cccc2c1CCN(Cc1cccnc1)C2=O)Nc1ccc2c(c1)OCCO2
9,4.24 µM,CCOc1ccc(NC(=O)COc2cccc3c2CCN(CC)C3=O)cc1
10,9.07 µM,COc1ccccc1CNC(=O)C1CCCN(c2nc3ccsc3c(=O)s2)C1 (stereo not given)
11,30.6 µM,O=c1c2ccccc2ncn1C1CCN(S(=O)(=O)c2ccccc2F)CC1
12,9.35 µM,CCOC(=O)c1ccc(S(=O)(=O)N2CCC(C(=O)OC(C)C(=O)Nc3cccc([N+](=O)[O-])c3)CC2)cc1 (stereo not given)
13,21.7 µM,COc1ccc(NC(=O)C2CC(=O)Nc3cc(-c4ccccc4)nn32)cc1 (stereo not given)
14,> 50 µM (inactive),CN1CC2CN(C(=O)Nc3cccnc3)CCN2Cc2ccccc21 (stereo not given)
15,> 50 µM (inactive),C/C=C(\Cl)C1=CC(=O)[C@]23C[C@H]2[C@@]2(C)CO[C@@]1(O)[C@@]3(O)O2
16,> 50 µM (inactive),COc1ccc(O)c(C(=O)OCc2cc(=O)oc3ccc4ccccc4c23)c1
17,8.44 µM,COc1ccc(CCn2cnc3c4ccccc4n(C)c3c2=O)cc1OC
18,20.5 µM,O=C(NCc1cccc(NC(=O)C2CC2)c1)Nc1cccc2ccccc12
19,13 µM,O=C1C/C(=C\c2cccc(Cl)c2)Cc2ccccc21
20,24.4 µM,O=C(Nc1ccc(F)cc1F)c1csc(-c2ccccc2)n1
21,16.4 µM,Cc1cc(C)n2nc(CNc3cccc(Cl)c3)nc2n1
22,31.3 µM,COc1ccc(CNC(=O)CSc2nc3nc(C)ccc3o2)cc1
23,> 50 µM (inactive),Cc1ccc(C)c(-n2c(C)cc(/C=C3/C(=N)N4C(c5ccc(F)cc5)=CSC4=NC3=O)c2C)c1
24,18.9 µM,COc1ccc(N(CC(=O)Nc2cccc(F)c2)S(=O)(=O)c2ccc(OC)c(OC)c2)cc1

row,Structure (SMILES),IC50
1,COC1=C(C2=C(OC)C(=O)c3cc4c(c(O)c3C2=O)C(=O)OC(C)C4)C(=O)c2c(cc3c(c2O)C(=O)OC(C)C3)C1=O (stereo not given),1.05 µM
